Each structure is given as a SMILES string. Peptide text beside a SMILES is read from it.

The subject of this test is smooth muscle of a bronchus. Put plainly: Relaxation of muscle of bronchus removed from guinea pig (histamine-contracted tracheal chain, four-point assay). Conditions: isolated guinea pig trachea chain, 6.5×10^-6 M histamine in Krebs solution at 37° C.; samples at 10^-5 M; area value of VIP-NH2 taken as 100%. The source says:
A. Determination on Relaxation of Muscle of Bronchus Removed from Guinea Pig:
The juglar vein of a male guinea pig weighing 300 g or more is cut, causing the guinea pig to be bled to death. The guinea pig undergoes thoracotomy. Immediately after the thoracotomy, 3 cm of the trachea is taken out. The trachea is immediately put in a Krebs solution. It is then cut into seven equal rings, and the cartilages are connected to one another with a cotton yarn to form a chain. Subsequently, the smooth muscle parts and cartilages opposite them are cut, so that the smooth muscle parts can be connected to one another. The preparation thus prepared is placed in an isothermic glass cell having an internal capacity of about 7 ml and suspended from above. The lower part of the preparation is fixed, while the upper part is connected to an isometric transducer, to which 0.5 g of a load has been applied, in order to determine the relaxation reaction. Sufficient amounts of 95% oxygen and 5% carbon dioxide gas are blown into the preparation. Further, a Krebs solution of 37° C. containing 6.5×10^-6 M histamine is dropped on the preparation from above at a flow rate of 3.3 ml/min. The relaxation reaction takes place to an extent proportional to the amount of a sample added to the dropped solution. By utilizing this relationship, the relaxation activity against bronchial smooth muscle with respect to the substance of the present invention is compared with that of VIP-NH2. VIP-NH2 is used at a concentration of 10^-5 M and dropped in amounts of 40 μl and 80 μl. The substance of the present invention is also used at a concentration of 10^-5 M and dropped in amounts of 10 μl and 20 μl. The value of the area (height×time) in relaxation of each case is determined. The specific activities are obtained by taking the area value of VIP-NH2 as 100% and determining the relative ratio of the area value of each case. Thus, the relaxation reactions are compared by the four-point assay method, with respect to the above-mentioned determination method, reference may be made to the following articles (e) and (f):
(e) W. L. M. Perry, Pharmacological Experiments on Isolated Preparations: E & S Livingstone LTD. 1968; and
(f) Castillo, De Beer, J. Phamac. Exp. Ther. 90, 104 (1947).
As for `CC[C@H](C)[C@H](NC(=O)[C@H](CO)NC(=O)[C@H](CC(N)=O)NC(=O)[C@H](CC(C)C)NC(=O)[C@H](Cc1ccc(O)cc1)NC(=O)[C@H](CCCCN)NC(=O)[C@H](CCCCN)NC(=O)[C@@H](NC(=O)[C@H](C)NC(=O)[C@H](CC(C)C)NC(=O)[C@H](CCC(N)=O)NC(=O)[C@H](CCCCN)NC(=O)[C@H](CCCNC(=N)N)NC(=O)[C@H](CC(C)C)NC(=O)[C@H](CCCNC(=N)N)NC(=O)[C@@H](NC(=O)[C@H](Cc1ccc(O)cc1)NC(=O)[C@H](CC(N)=O)NC(=O)[C@H](CC(=O)O)NC(=O)[C@@H](NC(=O)[C@H](Cc1ccccc1)NC(=O)[C@@H](NC(=O)[C@H](C)NC(=O)[C@H](CC(=O)O)NC(=O)[C@H](CO)NC(=O)[C@@H](N)Cc1c[nH]cn1)C(C)C)[C@@H](C)O)[C@@H](C)O)C(C)C)C(=O)N[C@@H](CC(C)C)C(=O)N[C@@H](CC(N)=O)C(=O)NCC(=O)N[C@@H](CCCCN)C(=O)N[C@@H](CCCNC(=N)N)C(=O)O` [X=Leu Y=Lys-Arg-OH] (H-HSDAVFTDNYTRLRKQLAVKKYLNSILNGKR-OH), the “A: specific activity (%) obtained by method A (relaxation area value relative to VIP-NH2)” value is given as 410%.
For `CC[C@H](C)[C@H](NC(=O)[C@H](CO)NC(=O)[C@H](CC(N)=O)NC(=O)[C@H](CC(C)C)NC(=O)[C@H](Cc1ccc(O)cc1)NC(=O)[C@H](CCCCN)NC(=O)[C@H](CCCCN)NC(=O)[C@@H](NC(=O)[C@H](C)NC(=O)[C@H](CC(C)C)NC(=O)[C@H](CCC(N)=O)NC(=O)[C@H](CCCCN)NC(=O)[C@H](CCCNC(=N)N)NC(=O)[C@H](CC(C)C)NC(=O)[C@H](CCCNC(=N)N)NC(=O)[C@@H](NC(=O)[C@H](Cc1ccc(O)cc1)NC(=O)[C@H](CC(N)=O)NC(=O)[C@H](CC(=O)O)NC(=O)[C@@H](NC(=O)[C@H](Cc1ccccc1)NC(=O)[C@@H](NC(=O)[C@H](C)NC(=O)[C@H](CC(=O)O)NC(=O)[C@H](CO)NC(=O)[C@@H](N)Cc1c[nH]cn1)C(C)C)[C@@H](C)O)[C@@H](C)O)C(C)C)C(=O)N[C@@H](CC(C)C)C(=O)N[C@@H](CC(N)=O)C(=O)NCC(=O)N[C@@H](CCCCN)C(N)=O` [X=Leu Y=Lys-NH2] (H-HSDAVFTDNYTRLRKQLAVKKYLNSILNGK-NH2), the “A: specific activity (%) obtained by method A (relaxation area value relative to VIP-NH2)” value is 300%.
For the compound `CC[C@H](C)[C@H](NC(=O)[C@H](CO)NC(=O)[C@H](CC(N)=O)NC(=O)[C@H](CC(C)C)NC(=O)[C@H](Cc1ccc(O)cc1)NC(=O)[C@H](CCCCN)NC(=O)[C@H](CCCCN)NC(=O)[C@@H](NC(=O)[C@H](C)NC(=O)[C@H](CC(C)C)NC(=O)[C@H](CCC(N)=O)NC(=O)[C@H](CCCCN)NC(=O)[C@H](CCCNC(=N)N)NC(=O)[C@H](CC(C)C)NC(=O)[C@H](CCCNC(=N)N)NC(=O)[C@@H](NC(=O)[C@H](Cc1ccc(O)cc1)NC(=O)[C@H](CC(N)=O)NC(=O)[C@H](CC(=O)O)NC(=O)[C@@H](NC(=O)[C@H](Cc1ccccc1)NC(=O)[C@@H](NC(=O)[C@H](C)NC(=O)[C@H](CC(=O)O)NC(=O)[C@H](CO)NC(=O)[C@@H](N)Cc1c[nH]cn1)C(C)C)[C@@H](C)O)[C@@H](C)O)C(C)C)C(=O)N[C@@H](CC(C)C)C(=O)N[C@@H](CC(N)=O)C(=O)NCC(=O)N[C@@H](CCCCN)C(=O)O` [X=Leu Y=Lys-OH] (H-HSDAVFTDNYTRLRKQLAVKKYLNSILNGK-OH), the “A: specific activity (%) obtained by method A (relaxation area value relative to VIP-NH2)” value was determined as 410%.
In the case of `CC[C@H](C)[C@H](NC(=O)[C@H](CO)NC(=O)[C@H](CC(N)=O)NC(=O)[C@H](CC(C)C)NC(=O)[C@H](Cc1ccc(O)cc1)NC(=O)[C@H](CCCCN)NC(=O)[C@H](CCCCN)NC(=O)[C@@H](NC(=O)[C@H](C)NC(=O)[C@H](CCSC)NC(=O)[C@H](CCC(N)=O)NC(=O)[C@H](CCCCN)NC(=O)[C@H](CCCNC(=N)N)NC(=O)[C@H](CC(C)C)NC(=O)[C@H](CCCNC(=N)N)NC(=O)[C@@H](NC(=O)[C@H](Cc1ccc(O)cc1)NC(=O)[C@H](CC(N)=O)NC(=O)[C@H](CC(=O)O)NC(=O)[C@@H](NC(=O)[C@H](Cc1ccccc1)NC(=O)[C@@H](NC(=O)[C@H](C)NC(=O)[C@H](CC(=O)O)NC(=O)[C@H](CO)NC(=O)[C@@H](N)Cc1c[nH]cn1)C(C)C)[C@@H](C)O)[C@@H](C)O)C(C)C)C(=O)N[C@@H](CC(C)C)C(=O)N[C@@H](CC(N)=O)C(=O)NCC(=O)N[C@@H](CCCNC(=N)N)C(=O)O` [X=Met Y=Arg-OH], the “A: specific activity (%) obtained by method A (relaxation area value relative to VIP-NH2)” value turned out to be 220%.
Turning to `CC[C@H](C)[C@H](NC(=O)[C@H](CO)NC(=O)[C@H](CC(N)=O)NC(=O)[C@H](CC(C)C)NC(=O)[C@H](Cc1ccc(O)cc1)NC(=O)[C@H](CCCCN)NC(=O)[C@H](CCCCN)NC(=O)[C@@H](NC(=O)[C@H](C)NC(=O)[C@H](CCSC)NC(=O)[C@H](CCC(N)=O)NC(=O)[C@H](CCCCN)NC(=O)[C@H](CCCNC(=N)N)NC(=O)[C@H](CC(C)C)NC(=O)[C@H](CCCNC(=N)N)NC(=O)[C@@H](NC(=O)[C@H](Cc1ccc(O)cc1)NC(=O)[C@H](CC(N)=O)NC(=O)[C@H](CC(=O)O)NC(=O)[C@@H](NC(=O)[C@H](Cc1ccccc1)NC(=O)[C@@H](NC(=O)[C@H](C)NC(=O)[C@H](CC(=O)O)NC(=O)[C@H](CO)NC(=O)[C@@H](N)Cc1c[nH]cn1)C(C)C)[C@@H](C)O)[C@@H](C)O)C(C)C)C(=O)N[C@@H](CC(C)C)C(=O)N[C@@H](CC(N)=O)C(=O)NCC(=O)N[C@@H](CCCCN)C(=O)N[C@@H](CCCNC(=N)N)C(=O)O` [X=Met Y=Lys-Arg-OH], the “A: specific activity (%) obtained by method A (relaxation area value relative to VIP-NH2)” value is on record as 460%.
Take `CC[C@H](C)[C@H](NC(=O)[C@H](CO)NC(=O)[C@H](CC(N)=O)NC(=O)[C@H](CC(C)C)NC(=O)[C@H](Cc1ccc(O)cc1)NC(=O)[C@H](CCCCN)NC(=O)[C@H](CCCCN)NC(=O)[C@@H](NC(=O)[C@H](C)NC(=O)[C@H](CCSC)NC(=O)[C@H](CCC(N)=O)NC(=O)[C@H](CCCCN)NC(=O)[C@H](CCCNC(=N)N)NC(=O)[C@H](CC(C)C)NC(=O)[C@H](CCCNC(=N)N)NC(=O)[C@@H](NC(=O)[C@H](Cc1ccc(O)cc1)NC(=O)[C@H](CC(N)=O)NC(=O)[C@H](CC(=O)O)NC(=O)[C@@H](NC(=O)[C@H](Cc1ccccc1)NC(=O)[C@@H](NC(=O)[C@H](C)NC(=O)[C@H](CC(=O)O)NC(=O)[C@H](CO)NC(=O)[C@@H](N)Cc1c[nH]cn1)C(C)C)[C@@H](C)O)[C@@H](C)O)C(C)C)C(=O)N[C@@H](CC(C)C)C(=O)N[C@@H](CC(N)=O)C(=O)NCC(=O)N[C@@H](CCCCN)C(N)=O` [X=Met Y=Lys-NH2]: the “A: specific activity (%) obtained by method A (relaxation area value relative to VIP-NH2)” value is on record as 140%.
As to `CC[C@H](C)[C@H](NC(=O)[C@H](CO)NC(=O)[C@H](CC(N)=O)NC(=O)[C@H](CC(C)C)NC(=O)[C@H](Cc1ccc(O)cc1)NC(=O)[C@H](CCCCN)NC(=O)[C@H](CCCCN)NC(=O)[C@@H](NC(=O)[C@H](C)NC(=O)[C@H](CCSC)NC(=O)[C@H](CCC(N)=O)NC(=O)[C@H](CCCCN)NC(=O)[C@H](CCCNC(=N)N)NC(=O)[C@H](CC(C)C)NC(=O)[C@H](CCCNC(=N)N)NC(=O)[C@@H](NC(=O)[C@H](Cc1ccc(O)cc1)NC(=O)[C@H](CC(N)=O)NC(=O)[C@H](CC(=O)O)NC(=O)[C@@H](NC(=O)[C@H](Cc1ccccc1)NC(=O)[C@@H](NC(=O)[C@H](C)NC(=O)[C@H](CC(=O)O)NC(=O)[C@H](CO)NC(=O)[C@@H](N)Cc1c[nH]cn1)C(C)C)[C@@H](C)O)[C@@H](C)O)C(C)C)C(=O)N[C@@H](CC(C)C)C(=O)N[C@@H](CC(N)=O)C(=O)NCC(=O)N[C@@H](CCCCN)C(=O)O` [X=Met Y=Lys-OH], the “A: specific activity (%) obtained by method A (relaxation area value relative to VIP-NH2)” value is recorded as 300%.
For the compound `CC[C@H](C)[C@H](NC(=O)[C@H](CO)NC(=O)[C@H](CC(N)=O)NC(=O)[C@H](CC(C)C)NC(=O)[C@H](Cc1ccc(O)cc1)NC(=O)[C@H](CCCCN)NC(=O)[C@H](CCCCN)NC(=O)[C@@H](NC(=O)[C@H](C)NC(=O)[C@H](CCSC)NC(=O)[C@H](CCC(N)=O)NC(=O)[C@H](CCCCN)NC(=O)[C@H](CCCNC(=N)N)NC(=O)[C@H](CC(C)C)NC(=O)[C@H](CCCNC(=N)N)NC(=O)[C@@H](NC(=O)[C@H](Cc1ccc(O)cc1)NC(=O)[C@H](CC(N)=O)NC(=O)[C@H](CC(=O)O)NC(=O)[C@@H](NC(=O)[C@H](Cc1ccccc1)NC(=O)[C@@H](NC(=O)[C@H](C)NC(=O)[C@H](CC(=O)O)NC(=O)[C@H](CO)NC(=O)[C@@H](N)Cc1c[nH]cn1)C(C)C)[C@@H](C)O)[C@@H](C)O)C(C)C)C(=O)N[C@@H](CC(C)C)C(=O)N[C@@H](CC(N)=O)C(=O)NCC(=O)O` [X=Met Y=OH], the “A: specific activity (%) obtained by method A (relaxation area value relative to VIP-NH2)” value is 70%.

For the origin of these results see patent US4757133A, “Physiologically active peptide” (Eisai Co., Ltd., priority 1986, dated 1988).
